Our source for the melting point values is a melting point compilation (Tetko et al.; mined from patent text by program, amines drawn as free bases though some values may be those of a salt).

For `O=C(O)CCCc1ccc(N2CCOCC2)cc1`, the melting point – broadly, the temperature of the solid-liquid transition – lay within 167 to 168 °C. Molecule `NC1CCOC1c1ncnc2nc[nH]c12` (centres undefined) showed a melting point of 128 to 130 °C. Regarding `CCCc1cc(CCC)c2oc(C(=O)c3ccc(OC)cc3)c(C)c2c1O`, the melting point was in the range of 119 to 121 °C. `COC(=O)c1ccc(Cn2c(C=Cc3ccc(OC)c(OC)c3)nc3c(OC)c(C)c(C)c(OC)c32)cc1` gave a melting point of 111 to 114 °C. Under `COc1c(N2CCC(O)C(CO)C2)c(F)cc2c(=O)c(C(=O)O)cn(C3CC3)c12` (centres undefined) stands 115 to 125 °C; under `CC1(C)CC(NC(=O)c2ccc(Cl)c([N+](=O)[O-])c2)CC(C)(C)N1`, 166 to 168 °C. Then `COc1ccc(-c2cc3c(Br)c(OC)ccc3o2)cc1`, with 115 to 117 °C. As to `CC=Cc1cc(OC)c(OC)cc1Cc1cnc(N)nc1N`, the melting point lay within 204 to 208 °C.

For the molecule `O=C(O)CCCCCCCn1ccnc1`, the melting point was in the range of 91 to 94 °C. Then `C=CC(=O)NC(CCC(=O)O)C(=O)O` (centres undefined), with 125 to 127 °C; and `O=C1N=CC(OCc2ccccc2)(C(F)(F)F)c2cc(Cl)ccc2N1` (centres undefined), with 177 to 178 °C; and `Nc1n[nH]c(SCCCO)n1`, with 136 to 137 °C. Under `Cc1c(O)ncnc1C(F)F` stands 166 to 167 °C; under `CCN(c1cccc2cc(C(=O)NCCSC(c3ccccc3)(c3ccccc3)c3ccccc3)[nH]c12)S(=O)(=O)c1cccs1`, 58 to 61 °C.

In turn, `CCOC(=O)C1CCC(=O)C(Sc2ccc(C)cc2)C1` (centres undefined) had a melting point of 87 to 89 °C. Then `COc1ccc(-c2cn[nH]c2N)cc1`, with 198 to 201 °C; and `O=C(c1ccccc1Cl)c1cc(Cl)ccc1C(=O)C(Br)CN1C(=O)c2ccccc2C1=O` (centres undefined), with 178 to 179 °C; and `Cc1ccc(C(CC(=O)O)C(C#N)c2cccnc2)cc1` (centres undefined), with 185 to 187 °C. Under `COc1ccc(N=C(C#Cc2ccccc2)N2CCN(Cc3ccc(C)cc3)CC2)cc1Cl` stands 113 °C; under `O=[N+]([O-])c1cc(Cl)ccc1NS(=O)(=O)c1ccc(Cl)cc1`, 122 to 123 °C; under `Cc1ccc(S(=O)(=O)OCC2COc3cc(Cl)c(Cl)cc3O2)cc1` (centres undefined), 124 to 125 °C. Under `O=C1Nc2ccccc2C(c2ccc(Cl)cc2)CC1Br` (centres undefined) stands 194 to 198 °C; under `CC(=O)c1ccc(C(=O)c2ccc(O)c(CC(=O)O)c2)cc1`, 235 °C; under `Cc1ccc(Nn2c(-c3ccccc3)c(C)[nH]c2=S)cc1C`, 228 °C.

Regarding `CSC1=N/C(=C\c2c[nH]c3ncc(Cl)cc23)C(=O)N1`, the melting point is > 410 °C. Then `CC(C)C(=O)c1cn(C)cc(-c2cccc(C(F)(F)F)c2)c1=O`, with 104 to 105 °C; and `Clc1cc2c(cc1Cl)C(Cl)Cc1ccccc1S2` (centres undefined), with 130 to 131 °C. Under `Cc1cc2c(cc1-c1cccc(C#CC(=O)O)c1)C(C)(C)CCC2(C)C` stands 180 to 181 °C; under `Cc1nnc(-c2ccc3occ(-c4ccc(F)cc4)c3c2)o1`, 130 to 131 °C. Under `O=[N+]([O-])C=Cc1cc(Br)ccc1O` stands 165 to 167 °C; under `CCCCC1CCc2ccc(OCc3ccccn3)cc2C1=O` (centres undefined), 56 to 60 °C; under `O=C(O)CCCNC(=O)c1cc(Br)no1`, 140 to 141 °C. In the case of `O=C1CC(OC2CCCCO2)C(CC2CCCCC2)N1` (centres undefined), the melting point lay in the range of 110 to 115 °C. Turning to `OC(c1ccccc1)(c1cccc(C(F)(F)F)c1)c1ncc[nH]1` (centres undefined), the melting point was found to be 152 °C. Under `CC(C)(C)OC(=O)NCCCCNC(=O)COc1ccc(Cl)cc1Cl` stands 107 °C; under `Cc1cc(C#N)cc2c(=O)oc(-c3cc(Br)nn3-c3ncccc3Cl)nc12`, 263 to 267 °C. Under `CC1(C)C(=O)Nc2ccc(-c3ccc(F)c(Cl)c3)cc21` stands 206 to 208 °C. Under `CN(C)C=C(C#N)S(=O)(=O)c1ccccc1` stands 108 to 110 °C; under `O[C@H]1c2cc(Oc3ccccn3)ccc2OC[C@H]1Cc1cccnc1` (relative stereo), 67 to 68 °C. For `O=C(Oc1ccc2c(OC(=O)c3ccc(O)c(O)c3)c3cc(OC(=O)c4ccc(O)c(O)c4)ccc3cc2c1)c1ccc(O)c(O)c1`, the melting point came out at 233 °C.

Molecule `COc1ccc(Cn2cnc3c(Cl)nc(F)nc32)cc1` registered a melting point of 90 °C. On to `CCOC(=O)c1nn(-c2ccc(Br)cc2)c(=O)c2c(N)scc12`, for which the melting point is 198 to 200 °C. Then `c1ccc(CSc2ccccc2C2=NOCCO2)cc1`, with 73 to 77 °C. Under `CC(C)c1nn(-c2ccc(C(F)(F)F)cn2)cc1CCCOc1c(CC(=O)O)cnn1C` stands 146 to 148 °C; under `CC(C)(C)NCC(O)c1cc(Cl)c(NC(=O)c2ccccc2)c(Cl)c1` (centres undefined), 177 to 182 °C; under `O=C(c1cc2cccc(NS(=O)(=O)c3cccs3)c2[nH]1)N1CCCC1`, 248 to 249 °C.

Take `COC(=O)c1cc(OCCc2nc(-c3ccccc3)oc2C)no1`: the melting point was 90 to 91 °C. Then `CCCCCCCCCCCCCCCCCCOc1cc(OCc2ccc3ccccc3n2)cc(N(CC(=O)O)CC(=O)O)c1`, with 172 to 174 °C. Under `O=c1[nH]c(=O)n(C2CC(Cl)C(CCl)O2)cc1C=CBr` (centres undefined) stands 184 °C; under `CCOC(=O)C=Cc1cnc(N(Cc2ccc(OC)c(OC)c2)C(=O)OC(C)(C)C)n2nc(-c3ccco3)nc12`, 124 to 129 °C; under `NS(=O)(=O)c1cc2cc(C(=O)NCC(O)CO)sc2s1` (centres undefined), 117 to 118 °C. `C[C@]12CC[C@H]3[C@@H](CCC4=CC(=O)CC[C@@H]43)[C@@H]1CCC21CC(O)CO1` (some centres undefined) yielded a melting point of 149 to 154 °C. Under `CCCCCCCCCCCCNC(=O)c1cc(-c2ccc(OC)cc2)c(OCCO)c(-c2cccc(Cl)c2)c1` stands 114 to 117 °C. With `COc1cc2nc(N3CCN(c4nc5c([nH]4)CCCCC5)CC3)nc(N)c2cc1OC`, the melting point is > 250 °C. Turning to `O=C(NC1CCCCC1)C(Br)c1ccccc1` (centres undefined), the melting point lay within 126 to 127 °C.

Take `CC(C)(C)OC(=O)Nc1cc2cc(OCc3ccccc3)ccc2cc1OCc1ccccc1`: the melting point was 179 to 182 °C. Then `COc1cc2cn(C3CCCCC3)nc2cc1OC`, with 100 to 103 °C; and `CCn1cnc2c(Nc3ccccc3)nc(Cl)nc21`, with 158 °C. Molecule `O=c1c[n+]([O-])c2cc(Cl)c(Cl)cc2[nH]1` came in with a melting point of 278 to 280 °C. Then `O=C1CN(Cc2ccccc2)C(=O)[C@@H](Cc2c[nH]c3ccccc23)N1`, with 207 to 208 °C; and `O=[N+]([O-])c1nccn1COC(CO)CO`, with 88 °C. For `COCCNC(=O)c1ccc(SC)c(N)c1`, the melting point fell in the range of 66 to 68 °C. Then `CCCc1nn(-c2ccc(C(F)(F)F)cn2)cc1CCCCOc1cc(CCC(=O)O)n(C)n1`, with 122 to 123 °C. On to `O=C(C=Cc1ccccc1C(=O)Cl)c1ccc([N+](=O)[O-])cc1`, for which the melting point lay in the range of 133 to 134 °C. Then `OCC1OC(Oc2ccsc2Cc2ccc(OC(F)(F)F)cc2)C(O)C(O)C1O` (centres undefined), with 144 to 145 °C; and `CC(C)[Si](Oc1ccc2c(=O)c(N3CCC(O)(c4ccccc4)CC3)coc2c1)(C(C)C)C(C)C`, with 163 to 164 °C; and `Cc1ccc2cc([N+](=O)[O-])c3ccc(C)nc3c2n1`, with 184 to 186 °C. Under `CNC(=O)NS(=O)(=O)c1cc(CCNC(=O)/C=C/c2cccs2)ccc1OC` stands 120 °C; under `COc1ccc(CN(CCCC(N)=O)Cc2ccc(OC)cc2)cc1`, 53 to 54 °C; under `CC(C)(C)OC(=O)N1CC(Oc2ccc(N)nc2)C1`, 83 to 84 °C. `CCc1nn(C(=O)CCCN2CCOCC2)c(CC)c1CCCCCCOc1ccc(OC)cc1Cl` returned a melting point of 93 to 95 °C.

Molecule `O=C(O)c1ccccc1SCCCOc1ccc(CCc2ccncc2)cc1` registered a melting point of 151 to 153 °C. In turn, `Cc1nc2cc(-c3ccc4c(c3)C=C(C(=O)Nc3ccc(CN(C)C5CCOCC5)cc3)CCS4(=O)=O)ccc2o1` yielded a melting point of 236 to 240 °C. The molecule `CC(=O)c1c(C)c2cnc(Nc3ccc(N4CCNCC4)nc3)nc2n(C2CCCC2)c1=O` displayed a melting point of 125 °C. Under `O=C1N(c2cc(Cl)cc(Cl)c2)C(=O)C2(Cc3ccc(Br)cc3)CCCCN12` (centres undefined) stands 129 °C; under `COC(=O)CC(C(=O)OC)N1C(=O)C2NC(C)(C)SC21` (centres undefined), 136 to 137 °C. Under `O=c1[nH]ccc2ncccc12` stands 156 to 159 °C.

Turning to `CC(=O)OC1CCC2(C)C(=CCC3C2CC(c2cccnc2)C2(C)C=CCC32)C1` (centres undefined), the melting point was 144 to 145 °C. Then `CN(Cc1ccc(NC(=O)C2=Cc3cc(-c4ccc(C(F)(F)F)cc4)ccc3OCC2)cc1)C1CCOCC1`, with 205 to 209 °C; and `CN(c1cccc2cc(C(N)=O)[nH]c12)S(=O)(=O)c1ccccc1C(F)(F)F`, with 223 to 224 °C; and `O=C(c1ccnc(Cl)c1)N1CC(c2ccc(F)cc2)C2(CCN(C/C=C/c3ccc(Cl)cc3)CC2)C1` (centres undefined), with 79 to 81 °C.

Consider `Clc1ccc2c(c1)N=C(NCCc1cccnc1)c1ccccc1N2`, for which the melting point lay within 195 to 196 °C. Under `Cc1nn(-c2cc(OS(C)(=O)=O)c(Cl)cc2F)c(C)c1[N+](=O)[O-]` stands 150 to 152 °C; under `C=C1CC2C(CCC3(C)C2CCC3(OC)C(=O)COC(C)=O)C2(C)CCC(=O)C=C12` (centres undefined), 142 to 143 °C; under `Cc1nn2c(-c3cccc(C(F)(F)F)c3)ccnc2c1C#N`, 149 to 150 °C. In turn, `CC(=O)OC1CSC(Oc2ccc(-c3ccc(F)nc3)nc2)C(OC(C)=O)C1OC(C)=O` (centres undefined) displayed a melting point of 185 °C. Then `O=C(CNC(=O)CSC(=O)c1ccccc1)CNC(=O)CSC(=O)c1ccccc1`, with 134 to 140 °C. `O[C@@H](CNCCOc1ccc2oc(-c3noc(C(F)(F)F)n3)cc2c1)COc1ccccc1` gave a melting point of 108 to 113 °C.

`O=CC(Nc1ccc2c(c1)OCC(=O)N2)N1CCC(Cc2ccc(F)cc2)CC1` (centres undefined) had a melting point of 156 to 161 °C.
